US12678423B2, “Therapeutic agent for amyotrophic lateral sclerosis and composition for treatment” (KEIO UNIVERSITY, priority 2016, dated 2026)

How the values were obtained:
Type in all cases: cell-based, human
Conditions in all cases: final concentration 10 μM, added days 35 to 40
[1] = test system: motor neurons induced to differentiate from iPS cells derived from ALS patients (TDP-43-ALS) having a mutation in TDP-43; experiment: Neurite length, TDP-43-ALS motor neurons (screening, Example I-8)
Protocol: (§1) For each differentiation-induced motor neuron in Example I-1, the changes over time in the neurite length were measured. A Bio station CT (Nikon Corp.) was used to measure the neurite length over time. FIG. 1 is a graph showing measurement results of changes over time in the neurite length. The vertical axis represents neurite length (relative value), and the horizontal axis represents the number of days of culturing from the start of differentiation induction.
(§2) Using the differentiation-induced motor neurons in Example I-1, drugs which cause the ALS phenotype to be restored were screened from existing drug libraries with the neurite length, ectopic localization of FUS protein, stress granule formation, LDH leakage ratio, CV-caspase 3-positive ratio, phosphorylated TDP-43 protein inclusion formation, and the like as indices.
(§3) As a result of the screening, ropinirole was found as a promising therapeutic agent for ALS. Tables 5 and 6 show the improvement ratio (%) in the ALS phenotype due to adding ropinirole to the medium. Here, ropinirole was added to the medium on days 35 to 40 from the start of the differentiation induction of each iPS cell. Here, it is assumed that days 35 to 40 from the start of differentiation induction correspond to the early stage of the ALS disease.
(§4) The improvement ratio (%) of the ALS phenotype was calculated by Equation (1).
(§5) [formula] [In Equation (1), A represents a measurement value of motor neurons induced to differentiate from iPS cells derived from ALS patients in the absence of ropinirole, and B represents a measurement value of motor neurons induced to differentiate from iPS cells derived from ALS patients in the presence of ropinirole, and C represents a measurement value of motor neurons induced to differentiate from iPS cells derived from healthy subjects in the absence of ropinirole.]
(§6) Subsequently, in the same manner as above, the efficacy in cases of administering lower concentrations of ropinirole was evaluated.
(§7) Each drug was added to the medium at a final concentration of 10 μM.

[2] = test system: motor neurons induced to differentiate from iPS cells derived from ALS patients (FUS-ALS) having a mutation in FUS; experiment: Ectopic localization of FUS protein in the cytoplasm, FUS-ALS motor neurons
From the text: Therefore, on day 40 from the start of differentiation induction, each differentiation-induced motor neuron in Example I-1 was immunostained and the localization of FUS protein in the cytoplasm was examined.
as §2, §3, §4, §5, §6, §7

[3] = test system: motor neurons induced to differentiate from iPS cells derived from ALS patients (FUS-ALS) having a mutation in FUS; experiment: Stress granule formation (G3BP immunostaining), FUS-ALS motor neurons
Protocol: On day 40 from the start of differentiation induction, the formation of stress granules was examined using each differentiation-induced motor neuron in Example I-1. The detection of stress granules was performed by immunostaining with G3BP, which is a marker of stress granules.
as §2, §3, §4, §5, §6, §7

[4] = test system: motor neurons induced to differentiate from iPS cells derived from ALS patients (FUS-ALS) having a mutation in FUS; experiment: LDH leakage ratio, FUS-ALS motor neurons
Protocol: (§8) The leakage amount of LDH into the medium is an indicator of cytotoxicity. For measurement of the LDH leakage ratio, a commercially available kit (model “LDH Cytotoxicity Detection Kit”, Takara Bio Inc.) was used.
(§9) Here, ropinirole was added to the medium on days 35 to 40 from the start of the differentiation induction of each iPS cell. Here, it is assumed that days 35 to 40 from the start of differentiation induction correspond to the early stage of the ALS disease.
as §4, §5, §6, §7

[5] = test system: motor neurons induced to differentiate from iPS cells derived from ALS patients (TDP-43-ALS) having a mutation in TDP-43; experiment: LDH leakage ratio, TDP-43-ALS motor neurons
Protocol: as §8, §9, §4, §5, §6, §7

[6] = test system: motor neurons induced to differentiate from iPS cells derived from ALS patients (TDP-43-ALS) having a mutation in TDP-43; experiment: Phosphorylated TDP-43 protein inclusion formation, TDP-43-ALS motor neurons
From the text: Therefore, on day 40 from the start of differentiation induction, each differentiation-induced motor neuron in Example I-1 was immunostained and the formation of phosphorylated TDP-43 protein inclusions was examined.
as §2, §3, §4, §5, §6, §7

[7] = test system: motor neurons induced to differentiate from iPS cells derived from ALS patients (FUS-ALS) having a mutation in FUS; experiment: Neurite length, FUS-ALS motor neurons (screening, Example I-8)
Protocol: as §1, §2, §3, §4, §5, §6, §7

Structure (SMILES) | Neurite length improvement ratio [1] | Ectopic localization of FUS protein improvement ratio [2] | Stress granule formation improvement ratio [3] | LDH leakage ratio improvement ratio [4] | LDH leakage ratio improvement ratio [5] | TDP-43 inclusion formation improvement ratio [6] | Neurite length improvement ratio [7]
CO/N=C(\C(=O)N[C@@H]1C(=O)N2C(C(=O)O)=C(CSc3nc(=O)c(=O)[nH]n3C)CS[C@H]12)c1csc(N)n1 [Ceftriaxone] | 20.4% | 22.6% | 11.0% | 21.2% | 15.1% | 35.4% | 36.3%
CC1=NN(c2ccccc2)C(=O)C1 [Edaravone] | 14.2% | 20.4% | 19.8% | 12.4% | 23.2% | 11.6% | 15.9%
